Experimental data as given in patent US20170321283A1, “METHODS OF DIAGNOSING CANCER AND OF PREDICTING RESPONSE OF CANCER TO DENDROGENIN A TREATMENT” (INSERM (INSTITUT NATIONAL DE LA SANTÉ ET DE LA RECHERCHE …, priority 2014, published 2017).
Entries after “also recorded” stand apart in the source; their conditions may differ. One block for each molecule: values may come before it.

How the values were obtained:
[1] = target: T1, hGSTA1 (Homo sapiens, UniProt P08263); assay: DDA biosynthesis by hGSTA1 (histaminylation of 5,6α-EC, DDAS activity); assay type: biochemical; settings: for Inhibition of DDA biosynthesis (DDAS): 10 mM CDNB, 1 μM 5,6β-EC or 10 μM CT, OCDO, 27-HC or 22(R)-HC (FIG. 3d-e)
T1 construct: purchased Novus NBP1-30307
T1 sequence (P08263 1-222): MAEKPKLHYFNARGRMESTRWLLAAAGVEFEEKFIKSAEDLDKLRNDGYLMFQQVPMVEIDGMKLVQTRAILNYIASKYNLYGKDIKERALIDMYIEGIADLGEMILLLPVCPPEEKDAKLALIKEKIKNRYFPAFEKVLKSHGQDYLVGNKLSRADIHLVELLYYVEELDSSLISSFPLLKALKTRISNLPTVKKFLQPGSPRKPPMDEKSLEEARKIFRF
Method: (§1) The mixture was incubated for 30 minutes at 30° C., and the reaction was stopped by addition of 200 μl MeOH. After centrifugation 10 min at 18,000 g (4° C.), the supernatant was evaporated to dryness using a speed vac concentrator (Savant SP01010, Thermo scientific) and the residue was resuspended in 20 μl MeOH. Samples were spotted on HPTLC NanoSilgur 10×10 cm plates (Macherey Nagel, ref 811042) and developed using ethyl acetate/butanol/acetic acid/water (6:2:3:2) for CDO-SG and CH2Cl/MeOH/NH4OH 84:15:1 for DDA. Standards were co-spotted with samples. […] The radioactivity was quantified by liquid scintillation counting of the ethanol extract of the silica scraped at the retention factor (Rf) corresponding to authentic 5,6α-EC, CDO-SG or DDA standards.

[2] = target: T1, hGSTA1; assay: Glutathionylation of CDNB by recombinant hGSTA1 (CDNB-SG biosynthesis); assay type: biochemical; settings: for Inhibition of CDNB-SG biosynthesis: 1 and 10 μM 5,6α-EC or HA (FIG. 2c)
Method: The mixture was incubated for 30 min at 30° C. and the reaction was stopped with 200 μl MeOH. Measurements were carried out spectrophotometrically at 345 nm (Am=8.5 mM^−1·cm^−1). The negative control corresponds to the same test performed in absence of hGSTA1.

[3] = target: T1, hGSTA1; assay: CDO-SG biosynthesis by hGSTA1 (glutathionylation of 5,6α-EC); assay type: biochemical; settings: for Inhibition of CDO-SG biosynthesis: 1 and 10 mM CDNB, 1 and 10 μM HA, 1 μM 5,6β-EC, 10 μM CT, OCDO, 27-HC or 22(R)-HC (FIG. 2g-h)
Method: as §1

[4] = system: LXR; settings: endogenous LXR ligand; cited from earlier work
[5] = substrate: NCCc1c[nH]cn1; assay: purified protein, by the assay type; settings: other: substrates 5,6α-EC + histamine, product DDA; pH 7.5; 30.0 °C
[6] = substrate: N[C@@H](CCC(=O)N[C@@H](CS)C(=O)NCC(=O)O)C(=O)O; assay: purified protein, by the assay type; settings: other: substrates 5,6α-EC + GSH, product CDO-SG; pH 7.5; 30.0 °C
[7] = substrates 5,6α-EC + histamine, product DDA, Table 1
[8] = substrates 5,6α-EC + GSH, product CDO-SG, Table 1

Molecule: CC(C)CCC[C@@H](C)[C@H]1CC[C@H]2[C@@H]3C[C@@H]4O[C@@]45C[C@@H](O)CC[C@]5(C)[C@H]3CC[C@]12C [5,6α-EC, 5,6α-epoxy-cholesterol]
catalytic efficiency higher to transform 5,6α-EC compared to CDNB [1]: 60 fold
Vm^5,6EC ([1]; 5,6-EC + HA to DDA): 0.81 pmol·min^−1·mg prot
Km ([1]; substrates 5,6α-EC + histamine, product DDA): 0.28 µM
Vm^5,6-EC [1, 7]: 0.81 pmol · min^−1 · mg.pr
Inhibition of CDNB-SG biosynthesis [2]: not inhibitors
Vm^5,6-EC ([3]; 5,6-EC + GSH to CDO-SG): 1.33 pmol·min^−1·mg prot
higher affinity of hGSTA1 for 5,6-EC than for CDNB ([3]; ratio of Km): 73 fold
Km ([3]; substrates 5,6α-EC + GSH, product CDO-SG): 0.44 µM
Vm^5,6-EC [3, 8]: 1.33 pmol · min^−1 · mg.pr

Molecule: CC(C)CCC[C@@H](C)[C@H]1CC[C@H]2[C@@H]3C[C@H]4O[C@]45C[C@@H](O)CC[C@]5(C)[C@H]3CC[C@]12C [5,6β-EC, 5,6β-epoxy-cholesterol]
Inhibition of DDA biosynthesis (DDAS) [1]: most potent inhibitor; also recorded: potent inhibitor
Inhibition of CDO-SG biosynthesis [3]: potent inhibitors

Molecule: O=[N+]([O-])c1ccc(Cl)c([N+](=O)[O-])c1 [CDNB, 1-chloro-2,4-dinitrobenzene]
Inhibition of DDA biosynthesis (DDAS) [1]: did not inhibit
Vm^CDNB ([2]; CDNB + GSH to CDNB-SG): 274 μmol·min^−1·mg prot
Km ([2]; read-out: Km^CDNB, substrates CDNB + GSH, product CDNB-S-G): 32.2 µM
Vm^CDNB ([2]; substrates CDNB + GSH, product CDNB-S-G, Table 1): 274 µmol/min/mg
Inhibition of CDO-SG biosynthesis [3]: did not inhibit

Molecule: CC(C)CCC[C@@H](C)[C@H]1CC[C@H]2[C@@H]3C[C@@H](SC[C@H](NC(=O)CC[C@H](N)C(=O)O)C(=O)NCC(=O)O)[C@@]4(O)C[C@@H](O)CC[C@]4(C)[C@H]3CC[C@]12C [CDO-SG, 3β,5α-dihydroxycholestan-6β-yl-S-glutathione]
weaker capacity to produce CDO-SG than to produce CDNB-SG ([3]; ratio of maximum velocities): 24.10^6 fold

Molecule: CC(C)CCC[C@@H](C)[C@H]1CC[C@H]2[C@@H]3C[C@@H](O)[C@@]4(O)C[C@@H](O)CC[C@]4(C)[C@H]3CC[C@]12C [CT]
Inhibition of CDO-SG biosynthesis [3]: potent inhibitors

Molecule: CC(C)CCCC(C)[C@H]1CCC2C3C[C@@H](NCCc4cnc[nH]4)[C@@]4(O)C[C@@H](O)CC[C@]4(C)C3CC[C@@]21C (some centres unmarked) [DDA, 5-hydroxy-6-[2-(1H-imidazol-4-yl)ethylamino]cholestan-3-ol]
affinity for LXR [4]: sub-μM

IC50 ([1]; read-out: IC50, inhibition of the biosynthesis of DDA): 52 µM
Vm^GSH ([2]; CDNB + GSH to CDNB-SG): 8.12 μmol·min^−1·mg prot
Vm^GSH [3, 8]: 1.50 pmol · min^−1 · mg · pr
Molecule: N[C@@H](CCC(=O)N[C@@H](CS)C(=O)NCC(=O)O)C(=O)O [GSH, glutathione]

catalytic efficiency higher to transform HA compared to GSH [1]: 60 fold
weaker Km for HA than for GSH ([1]; DDA biosynthesis versus CDO-SG biosynthesis): 135 fold
Vm^His [1, 7]: 0.66 pmol · min^−1 · mg · pr
Inhibition of CDNB-SG biosynthesis [2]: not inhibitors
Inhibition of CDO-SG biosynthesis [3]: potent inhibitor
Molecule: NCCc1c[nH]cn1 [HA, histamine]

Molecule: CC(C)CCC[C@@H](C)[C@H]1CC[C@H]2[C@@H]3CC(=O)[C@@]4(O)C[C@@H](O)CC[C@]4(C)[C@H]3CC[C@]12C [OCDO]
Inhibition of CDO-SG biosynthesis [3]: potent inhibitors

B1: hGSTA1 (Homo sapiens) (protein)
chain: T1 sequence (P08263 1-222)
Km [5]: 0.35 µM
Vmax [5]: 0.66 pmol·min^−1·mg prot
Km [6]: 47 µM
Vmax [6]: 1.50 pmol·min^−1·mg prot
